In patent US8252781B2, “1,2-diazetidin-3-one derivatives and drugs containing same” (Kowa Company, Ltd., priority 2008, dated 2012) one finds IC50 data, which are given here for 26 compounds.

Read-outs that look alike come from different tables or passages of the source.

Assay [1] concerns the target T1, mouse 11β-HSD1 (Mus musculus, UniProt P50172).
T1 construct: The obtained PCR products of about 0.9 kbp, 1.2 kbp, and 0.9 kbp were subcloned into an expression vector pcDNA3.1+/Zeo; expressed in transfected cells
As to the kind of experiment: Enzyme inhibitory activity, mouse 11β-HSD1 (lysate of stably expressing CHO-K1 cells, cortisol by competitive ELISA). In kind it is biochemical. The following applies: Table 2; mouse 11β-HSD1, cell lysate, 37° C. for 1 hour; read-out: m HSD1 in vitro assay (IC50 uM). The procedure:
(§1) 1. Human 11β-HSD1-, Human 11β-HSD2- and Mouse 11β-HSD1-Gene Clonings and Establishment of Stably Expressing Cells
(§2) Human 11β-HSD1-, human 11β-HSD2-, and mouse 11β-HSD1-gene clonings were conducted using as a template a reverse transcription product of human-liver RNA, human-kidney RNA (CELL APPLICATIONS), and mouse-kidney RNA respectively, by means of PCR cloning with reference to nucleotide sequences of Genbank Accession Nos. NM_005525, NM_000196, and NM_008288. The obtained PCR products of about 0.9 kbp, 1.2 kbp, and 0.9 kbp were subcloned into an expression vector pcDNA3.1+/Zeo (Invitrogen).
(§3) Human 11β-HSD1- and human 11β-HSD2-expressing vectors were transfected into human kidney-derived cell line, HEK293 cells, using a transfection reagent, jet PEI (Funakoshi). Mouse 11β-HSD1 was transfected to Chinese hamster ovary-derived cell line, CHO-K1 cells. Selection was conducted with 200-400 μg/mL of zeocine (Invitrogen) to provide stably expressing-cell clones. The stably expressing cells were suspended in buffer solution A (20 mmol/L Tris-HCl, pH 7.4, 250 mmol/L sucrose, 1 mmol/L EGTA, 1 mmol/L EDTA, 1 mmol/L MgCl2), sonicated, and then stored at −80° C.
(§4) 2. Assay of Enzyme Inhibitory Activity
(§5) An enzymatic reaction was conducted using a polystyrene 96-well plate. Each well was added with 1 μL of a test agent dissolved in DMSO and then diluted (0.003 to 3 mmol/L), and further added with 10 μL of cell lysate diluted to a concentration of 0.1 mg/mL to 0.4 mg/mL. Next, 90 μL of buffer solution A containing substrate (100 nmol/L cortisone or cortisol) and coenzyme (400 μmol/L NADPH or NAD+) was added and the mixture was incubated at 37° C. for 1 hour. The enzymatic reaction was stopped by treating at 95° C. for 3 minutes. Cortisol that was present in the reaction solution was determined by a competitive ELISA shown below.
(§6) Anti-rabbit IgG antibody (Chemi-con) diluted to 2 μg/mL with carbonate buffer solution (pH 9.6) was added in 100 μL each to a 96-well immuno plate (Nunc) and immobilized by an incubation at 4° C. overnight. 50 μL of enzymatic reaction solution was put onto the plates, and further, anti-cortisol antibody (Cosmo Bio) and HRP-labeled cortisol (Cosmo Bio), diluted with buffer solution B (25 mmol/L Tris-HCl pH 7.4, 137 mmol/L NaCl, 2.68 mmol/L KCl), were added in 50 μL respectively and incubated at 4° C. overnight. After washed three times with buffer solution B containing 0.05% Tween 20, the plates were allowed to develop color by adding 100 μL of color reagent, TMB (Moss). The color reaction was stopped by 25 μL of 1 mol/L sulfuric acid and the absorbance was determined at 450 nm with a microplate reader (Molecular Device, VersaMax).
(§7) The values of human 11β-HSD1, human 11β-HSD2, and mouse 11β-HSD1 activities were subtracted from 100, and the resultant values were regarded as the respective 11β-HSD inhibition rates of example compounds. […] The comparison of human 11β-HSD1 and human 11β-HSD2 inhibiting activities is shown in Table 1, and the comparison of human 11β-HSD1 and mouse 11β-HSD1 inhibiting activities is shown in Table 2.

The target in assay [2] is T2, human 11β-HSD1 (Homo sapiens, UniProt P28845).
T2 construct: The obtained PCR products of about 0.9 kbp, 1.2 kbp, and 0.9 kbp were subcloned into an expression vector pcDNA3.1+/Zeo; expressed in transfected cells
T2 sequence (P28845 whole entry): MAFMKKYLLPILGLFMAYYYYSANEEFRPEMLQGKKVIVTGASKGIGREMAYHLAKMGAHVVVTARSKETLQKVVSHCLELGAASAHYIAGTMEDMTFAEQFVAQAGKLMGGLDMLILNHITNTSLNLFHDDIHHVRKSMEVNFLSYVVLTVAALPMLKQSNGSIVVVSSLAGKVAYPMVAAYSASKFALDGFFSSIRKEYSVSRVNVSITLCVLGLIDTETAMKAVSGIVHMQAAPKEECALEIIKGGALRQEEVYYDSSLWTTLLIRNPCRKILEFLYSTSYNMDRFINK
In words: Enzyme inhibitory activity, human 11β-HSD1 (lysate of stably expressing HEK293 cells, cortisol by competitive ELISA). To be noted: human 11β-HSD1, cell lysate, 37° C. for 1 hour, read-out: h HSD1 in vitro assay (IC50 uM). The class given is biochemical. The procedure:
as §1, §2, §3, §4, §5, §6, §7

T1 sequence (P50172 whole entry): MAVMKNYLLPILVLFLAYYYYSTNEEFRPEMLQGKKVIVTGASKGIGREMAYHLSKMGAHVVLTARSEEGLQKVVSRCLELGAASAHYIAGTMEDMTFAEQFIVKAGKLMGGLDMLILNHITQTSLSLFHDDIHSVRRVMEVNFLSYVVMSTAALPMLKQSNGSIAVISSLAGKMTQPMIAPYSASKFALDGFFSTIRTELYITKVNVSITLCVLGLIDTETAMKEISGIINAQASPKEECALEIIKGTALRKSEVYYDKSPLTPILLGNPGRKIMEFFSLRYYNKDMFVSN

Turning to `CC1(C)C(=O)N(C2C3CC4CC(C3)CC2C4)N1Cc1ccccc1[N+](=O)[O-]` (centres unmarked) [Example 47, 4,4-dimethyl-1-(2-nitrobenzyl)-2-(adamantan-2-yl)-1,2-diazetidin-3-one], the IC50 worked out at 0.58 µM in assay [1] and 0.2 µM in assay [2] (Table 2).
The corresponding values for `Cc1ccccc1CN1N(C2C3CC4CC(C3)CC2C4)C(=O)C1(C)C` (centres unmarked) [Example 30, 4,4-dimethyl-1-(2-methylbenzyl)-2-(adamantan-2-yl)-1,2-diazetidin-3-one] are 0.1 µM and 0.047 µM.
For `Cc1ccc(C)c(CN2N(C3C4CC5CC(C4)CC3C5)C(=O)C2(C)C)c1` (centres unmarked) [Example 56, 1-(2,5-dimethylbenzyl)-4,4-dimethyl-2-(adamantan-2-yl)-1,2-diazetidin-3-one] the same measures were 0.052 µM and 0.054 µM.
As for `Cc1ccc(CN2N(C3C4CC5CC(C4)CC3C5)C(=O)C2(C)C)c(C)c1` (centres unmarked) [Example 55, 1-(2,4-dimethylbenzyl)-4,4-dimethyl-2-(adamantan-2-yl)-1,2-diazetidin-3-one], the values for the IC50 in assay [1] and in assay [2] (Table 2) were 0.069 µM and 0.067 µM, respectively.
For `CC1(C)C(=O)N(C2C3CC4CC(C3)CC2C4)N1c1ccccc1O` (centres unmarked) [Example 219, 1-(2-hydroxyphenyl)-4,4-dimethyl-2-(adamantan-2-yl)-1,2-diazetidin-3-one] the same measures were 0.23 µM and 0.56 µM.
The corresponding values for `CC1(C)C(=O)N(C2C3CC4CC(C3)CC2C4)N1Cc1cc(F)ccc1F` (centres unmarked) [Example 20, 1-(2,5-difluorobenzyl)-4,4-dimethyl-2-(adamantan-2-yl)-1,2-diazetidin-3-one] are 0.2 µM and 0.35 µM.
For `CC1(C)C(=O)N(C2C3CC4CC(C3)CC2C4)N1Cc1ccccc1-c1ccccc1` (centres unmarked) [Example 49, 1-(biphenyl-2-ylmethyl)-4,4-dimethyl-2-(adamantan-2-yl)-1,2-diazetidin-3-one], the IC50 in assay [1] was found to be 0.31 µM; in assay [2] (Table 1), 0.8 µM.
`CC1(C)C(=O)N(C2C3CC4CC(C3)CC2C4)N1Cc1cccc(F)c1F` (centres unmarked) [Example 19, 1-(2,3-difluorobenzyl)-4,4-dimethyl-2-(adamantan-2-yl)-1,2-diazetidin-3-one]: the IC50 was 0.27 µM in assay [1] and 0.47 µM in assay [2] (Table 2).
As to `CC1(C)C(=O)N(C2C3CC4CC(C3)CC2C4)N1Cc1cccc2ccccc12` (centres unmarked) [Example 63, 4,4-dimethyl-1-(naphthalen-1-ylmethyl)-2-(adamantan-2-yl)-1,2-diazetidin-3-one], the IC50 in assay [1] was 0.41 µM; in assay [2] (Table 2), 0.015 µM.
The corresponding values for `CC1(C)C(=O)N(C2C3CC4CC(C3)CC2C4)N1Cc1cccc([N+](=O)[O-])c1` (centres unmarked) [Example 29, 4,4-dimethyl-1-(3-nitrobenzyl)-2-(adamantan-2-yl)-1,2-diazetidin-3-one] are 0.37 µM and 0.6 µM.
With `CC1(C)C(=O)N(C2C3CC4CC2CC(C(N)=O)(C4)C3)N1c1cccc2ccccc12` (stereo not drawn) [Example 273, cis-4-[2-(naphthalen-1-yl)-3,3-dimethyl-4-oxo-1,2-diazetidin-1-yl]adamantane-1-carboxamide], the IC50 in assay [1] turned out to be 0.1 µM; in assay [2] (Table 1), 0.02 µM; in assay [2] (Table 2), 0.02 µM.
For the compound `COc1ccccc1CN1N(C2C3CC4CC(C3)CC2C4)C(=O)C1(C)C` (centres unmarked) [Example 51, 1-(2-methoxybenzyl)-4,4-dimethyl-2-(adamantan-2-yl)-1,2-diazetidin-3-one], the IC50 in assay [1] amounted to 0.58 µM; in assay [2] (Table 2), 0.082 µM.
`Cc1ccccc1C(=O)N1N(C2CCCCCCC2)C(=O)C1(C)C` [Example 152, 2-cyclooctyl-4,4-dimethyl-1-[(2-methylphenyl)carbonyl]-1,2-diazetidin-3-one]: the IC50 in assay [1] stood at 0.54 µM; in assay [2] (Table 1), 0.23 µM.
The corresponding values for `CC1(C)C(=O)N(C2CC3CCC2C3)N1c1cccc2ccccc12` (centres unmarked) [Example 225, 2-(bicyclo[2.2.1]heptan-2-yl)-4,4-dimethyl-1-(naphthalen-1-yl)-1,2-diazetidin-3-one] are 0.012 µM and 0.036 µM.
`Cc1ccc(C(=O)N2N(C3C4CC5CC(C4)CC3C5)C(=O)C2(C)C)c(C)c1` (centres unmarked) [Example 160, 1-[(2,4-dimethylphenyl)carbonyl]-4,4-dimethyl-2-(adamantan-2-yl)-1,2-diazetidin-3-one]: the IC50 in assay [1] was 0.16 µM; in assay [2] (Table 1), 0.52 µM.
In the case of `COc1ccccc1N1N(C2CCCCCCC2)C(=O)C1(C)C` [Example 220, 2-cyclooctyl-1-(2-methoxyphenyl)-4,4-dimethyl-1,2-diazetidin-3-one], the IC50 in assay [1] stood at 0.088 µM; in assay [2] (Table 1), 0.056 µM.
With `CC1(C)C(=O)N(C2CCCCCC2)N1Cc1cc(F)ccc1Cl` [Example 87, 1-(2-chloro-5-fluorobenzyl)-2-cycloheptyl-4,4-dimethyl-1,2-diazetidin-3-one], the IC50 was determined as 0.85 µM in assay [1] and 0.1 µM in assay [2] (Table 2).
The corresponding values for `CC1(C)C(=O)N(C2C3CC4CC(C3)CC2C4)N1C(=O)c1cccc(Br)c1` (centres unmarked) [Example 113, 1-[(3-bromophenyl)carbonyl]-4,4-dimethyl-2-(adamantan-2-yl)-1,2-diazetidin-3-one] are 0.12 µM and 0.42 µM.
The corresponding values for `CC1(C)C(=O)N(C2C3CC4CC(C3)CC2C4)N1Cc1cc(Cl)ccc1Cl` (centres unmarked) [Example 44, 1-(2,5-dichlorobenzyl)-4,4-dimethyl-2-(adamantan-2-yl)-1,2-diazetidin-3-one] are 0.073 µM and 0.044 µM.
For `CC1(C)C(=O)N(C2CC3CCC2C3)N1Cc1cccc(Cl)c1Cl` (centres unmarked) [Example 79, 2-(bicyclo[2.2.1]heptan-2-yl)-1-(2,3-dichlorobenzyl)-4,4-dimethyl-1,2-diazetidin-3-one] the same measures were 0.36 µM and 0.22 µM.
`CC1(C)C(=O)N(C2C3CC4CC(C3)CC2C4)N1Cc1ccc(Cl)cc1` (centres unmarked) [Example 13, 1-(4-chlorobenzyl)-4,4-dimethyl-2-(adamantan-2-yl)-1,2-diazetidin-3-one]: the IC50 was found to be 0.025 µM in assay [1] and 0.058 µM in assay [2] (Table 2).
On to `Cc1ccc(F)cc1C(=O)N1N(C2C3CC4CC(C3)CC2C4)C(=O)C1(C)C` (centres unmarked) [Example 125, 1-[(5-fluoro-2-methylphenyl)carbonyl]-4,4-dimethyl-2-(adamantan-2-yl)-1,2-diazetidin-3-one], for which the values for the IC50 in assay [1] and in assay [2] (Table 1) were 0.42 µM and 0.47 µM, respectively.
The corresponding values for `Cc1c(F)cccc1C(=O)N1N(C2C3CC4CC(C3)CC2C4)C(=O)C1(C)C` (centres unmarked) [Example 157, 1-[(3-fluoro-2-methylphenyl)carbonyl]-4,4-dimethyl-2-(adamantan-2-yl)-1,2-diazetidin-3-one] are 0.15 µM and 0.44 µM.
For the compound `CC1(C)C(=O)N(C2C3CC4CC(C3)CC2C4)N1Cc1ccc2ccccc2c1` (centres unmarked) [Example 64, 4,4-dimethyl-1-(naphthalen-2-ylmethyl)-2-(adamantan-2-yl)-1,2-diazetidin-3-one], the IC50 in assay [1] worked out at 0.041 µM; in assay [2] (Table 2), 0.6 µM.
`CC1(C)C(=O)N(C2C3CC4CC(C3)CC2C4)N1CCc1ccccc1` (centres unmarked) [Example 266, 4,4-dimethyl-1-(2-phenylethyl)-2-(adamantan-2-yl)-1,2-diazetidin-3-one]: the results for the IC50 in assay [1] and in assay [2] (Table 2) were 0.47 µM and 0.55 µM, respectively.
For `CC1(C)C(=O)N(C2CC3CCC2C3)N1Cc1ccccc1Cl` (centres unmarked) [Example 78, 2-(bicyclo[2.2.1]heptan-2-yl)-1-(2-chlorobenzyl)-4,4-dimethyl-1,2-diazetidin-3-one] the same measures were 0.64 µM and 0.15 µM.
